Data: US12509452B2, “Substituted-isoxazoline-containing aromatic compound, preparation method therefor, herbicidal composition and use thereof” (QINGDAO KINGAGROOT CHEMICAL COMPOUND CO., LTD., priority 2019, dated 2025)

What was measured:
Assay type in all cases: in vivo
[1] = tested on: Alopecurus japonicus; test: weeding effect in post-emergence stage
In short: (§1)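 Post-emergence greenhouse pot test: 2-3 leaf weeds sprayed (acetone/Tween 80 formulation plus 1.5 liter/ha methyl oleate EC) at 500, 250, 125, 60, 15, 7.5 g a.i./ha; fresh weight control rate read 3 weeks later, graded 0 (<5%) to 5 (>85%); n=3 averages.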

[2] = tested on: Beckmannia syzigachne; test: weeding effect in post-emergence stage
In short: as §1

[3] = tested on: Conyza japonica; test: weeding effect in post-emergence stage
In short: as §1

[4] = tested on: Rorippa indica; test: weeding effect in post-emergence stage
In short: as §1

[5] = tested on: Echinochloa crusgalli, Scirpus juncoides and Bidens tripartita L. collected from Heilongjiang Province of China; test: resistance tests of the collected rice field weeds; conditions: seeds collected from Heilongjiang Province of China
Text: Note: The seeds of Echinochloa crusgalli, Scirpus juncoides and Bidens tripartita L. were collected from Heilongjiang Province of China.

| SMILES | weeding effect in post-emergence stage, Alopecurus japonicus (activity level) ([1]; dose 15 g a.i./ha) | weeding effect in post-emergence stage, Beckmannia syzigachne (activity level) ([2]; dose 15 g a.i./ha) | weeding effect in post-emergence stage, Conyza japonica (activity level) ([3]; dose 15 g a.i./ha) | weeding effect in post-emergence stage, Rorippa indica (activity level) ([4]; dose 15 g a.i./ha) | weeding effect in post-emergence stage, Alopecurus japonicus (activity level) ([1]; dose 7.5 g a.i./ha) | weeding effect in post-emergence stage, Beckmannia syzigachne (activity level) ([2]; dose 7.5 g a.i./ha) | weeding effect in post-emergence stage, Conyza japonica (activity level) ([3]; dose 7.5 g a.i./ha) | weeding effect in post-emergence stage, Rorippa indica (activity level) ([4]; dose 7.5 g a.i./ha) | response of the weeds to the common doses [5] |
| --- | --- | --- | --- | --- | --- | --- | --- | --- | --- |
| CCOC(=O)C1ON=C(c2cc(-n3c(=O)n(C)c(=S)n(C)c3=O)c(F)cc2Cl)C1C (stereo not shown) [Compound 1-98] | 5 (Level 5: growth control rate is above 85%) | 5 (Level 5: growth control rate is above 85%) | 5 (Level 5: growth control rate is above 85%) | 5 (Level 5: growth control rate is above 85%) |  |  |  |  |  |
| CCOC(=O)C1ON=C(c2cc(-n3c(=O)n(C)c(=S)n(C)c3=O)c(F)cc2Cl)C1C(F)(F)F (stereo not shown) [Compound 1-99] | 5 (Level 5: growth control rate is above 85%) | 5 (Level 5: growth control rate is above 85%) | 5 (Level 5: growth control rate is above 85%) | 5 (Level 5: growth control rate is above 85%) |  |  |  |  |  |
| CCOC(=O)C1ON=C(c2cc(-n3c(=O)n(C)c(=S)n(C)c3=O)c(F)cc2Cl)C1C(=O)OCC (stereo not shown) [Compound 1-100] | 5 (Level 5: growth control rate is above 85%) | 5 (Level 5: growth control rate is above 85%) | 5 (Level 5: growth control rate is above 85%) | 5 (Level 5: growth control rate is above 85%) |  |  |  |  |  |
| CCOC(=O)C1(C)ON=C(c2cc(-n3c(=O)n(C)c(=S)n(C)c3=O)c(F)cc2Cl)C1C (stereo not shown) [Compound 1-101] | 5 (Level 5: growth control rate is above 85%) | 5 (Level 5: growth control rate is above 85%) | 5 (Level 5: growth control rate is above 85%) | 5 (Level 5: growth control rate is above 85%) |  |  |  |  |  |
| CCOC(=O)C1(C)CC(c2cc(-n3c(=O)n(C)c(=S)n(C)c3=O)c(F)cc2Cl)=NO1 (stereo not shown) [Control compound A, reference compound] | 3 (Level 3: growth control rate is greater than or equal to 40% and less than 60%) | 2 (Level 2: growth control rate is greater than or equal to 20% and less than 40%) | 2 (Level 2: growth control rate is greater than or equal to 20% and less than 40%) | 2 (Level 2: growth control rate is greater than or equal to 20% and less than 40%) |  |  |  |  |  |
| CCOC(=O)C1(C)CC(c2cc(-n3c(=O)cc(C(F)(F)F)n(C)c3=O)c(F)cc2Cl)=NO1 (stereo not shown) [Control compound B, reference compound] | 4 (Level 4: growth control rate is greater than or equal to 60% and less than 85%) | 3 (Level 3: growth control rate is greater than or equal to 40% and less than 60%) | 4 (Level 4: growth control rate is greater than or equal to 60% and less than 85%) | 3 (Level 3: growth control rate is greater than or equal to 40% and less than 60%) | 3 (Level 3: growth control rate is greater than or equal to 40% and less than 60%) | 2 (Level 2: growth control rate is greater than or equal to 20% and less than 40%) | 3 (Level 3: growth control rate is greater than or equal to 40% and less than 60%) | 2 (Level 2: growth control rate is greater than or equal to 20% and less than 40%) |  |
| CCOC(=O)c1cnn(C)c1S(=O)(=O)NC(=O)Nc1nc(OC)cc(OC)n1 [Pyrazosulfuron-ethyl] |  |  |  |  |  |  |  |  | resistant |
| CCOC(=O)C1(C)CC(c2cc(-n3c(=O)cc(C(F)(F)F)n(C)c3=O)c(F)cc2Cl)=NO1 (stereo not shown) [drawing 745, reference compound] | 2 (Level 2: growth control rate is greater than or equal to 20% and less than 40%) | 1 (Level 1: growth control rate is greater than or equal to 5% and less than 20%) | 1 (Level 1: growth control rate is greater than or equal to 5% and less than 20%) | 1 (Level 1: growth control rate is greater than or equal to 5% and less than 20%) |  |  |  |  |  |
| CCOC(=O)C1(C)CC(c2cc(-n3c(=O)n(C)c(=S)n(C)c3=O)c(F)cc2Cl)=NO1 (stereo not shown) [drawing 746, reference compound] | 2 (Level 2: growth control rate is greater than or equal to 20% and less than 40%) | 1 (Level 1: growth control rate is greater than or equal to 5% and less than 20%) | 1 (Level 1: growth control rate is greater than or equal to 5% and less than 20%) | 1 (Level 1: growth control rate is greater than or equal to 5% and less than 20%) |  |  |  |  |  |
